Tests used:
Format in all cases: in vivo
[1] = test system: barnyardgrass (Echinochloa crus-galli); assay: Test C greenhouse herbicide test, pre- and postemergence
Description: Seeds of plant species selected from blackgrass (Alopecurus myosuroides), ryegrass, Italian (Italian ryegrass, Lolium multiflorum), wheat (winter wheat, Triticum aestivum), galium (catchweed bedstraw, Galium aparine), corn (Zea mays), large crabgrass, large (large crabgrass, Digitaria sanguinalis), foxtail, giant (giant foxtail, Setaria faberii), johnsongrass (Sorghum halepense), lambsquarters (Chenopodium album), morningglory (Ipomoea coccinea), nutsedge, yellow (yellow nutsedge, Cyperus esculentus), pigweed (Amaranthus retroflexus), ragweed (common ragweed, Ambrosia elatior), soybean (Glycine max), barnyardgrass (Echinochloa crus-galli), oilseed rape (Brassica napus), waterhemp (common waterhemp, Amaranthus rudis), and velvetleaf (Abutilon theophrasti) were planted into a blend of loam soil and sand and treated preemergence with test chemicals formulated in a non-phytotoxic solvent mixture which included a surfactant.
At the same time, plants selected from these crop and weed species and also chickweed (common chickweed, Stellaria media), kochia (Kochia scoparia), and oat, wild (wild oat, Avena fatua), were planted in pots containing Redi-Earth® planting medium (Scotts Company, 14111 Scottslawn Road, Marysville, Ohio 43041) comprising spaghnum peat moss, vermiculite, wetting agent and starter nutrients and treated with postemergence applications of test chemicals formulated in the same manner. Plants ranged in height from 2 to 18 cm (1- to 4-leaf stage) for postemergence treatments. Treated plants and controls were maintained in a greenhouse for 13 to 15 d, after which time all species were compared to controls and visually evaluated. Plant response ratings, summarized in Table C, are based on a scale of 0 to 100 where 0 is no effect and 100 is complete control. A dash (-) response means no test result.

[2] = test system: pigweed (Amaranthus retroflexus); assay: Test A greenhouse herbicide test, pre- and postemergence
Outline: (§1)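 Seeds in loam–sand blend received a preemergence directed soil spray; plants at 2–10 cm, one- to two-leaf stage, received postemergence sprays. Compounds in a non-phytotoxic solvent with surfactant. After about 10 d in a greenhouse, injury rated visually versus untreated controls on a 0–100 scale (100 = complete control).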

kochia (Kochia scoparia) = assay: as above
Outline: as §1

corn (Zea mays) = assay: as above; details: Postemergence; for Plant response rating, Corn: 125 g ai/ha, 0 to 100 scale where 0 is no effect and 100 is complete control; for Corn plant response rating: 500 g ai/ha, 0 to 100 scale, 0 is no effect, 100 is complete control
Outline: as §1

[3] = test system: foxtail, giant (giant foxtail, Setaria faberii); assay: as above
Outline: as §1

[4] = test system: ragweed (common ragweed, Ambrosia elatior); assay: as above
Outline: as §1

[5] = test system: wheat (Triticum aestivum); assay: as above; details: Postemergence; for Plant response rating, Wheat: 125 g ai/ha, 0 to 100 scale where 0 is no effect and 100 is complete control; for Wheat plant response rating: 500 g ai/ha, 0 to 100 scale, 0 is no effect, 100 is complete control
Outline: as §1

[6] = test system: ryegrass, Italian (Italian ryegrass, Lolium multiflorum); assay: as above
Outline: as §1

[7] = test system: barnyardgrass (Echinochloa crus-galli); assay: as above
Outline: as §1

[8] = test system: blackgrass (Alopecurus myosuroides); assay: Test A greenhouse herbicide test, postemergence; details: for Plant response rating, Blackgrass: 125 g ai/ha, 0 to 100 scale where 0 is no effect and 100 is complete control; for Blackgrass plant response rating: 500 g ai/ha, 0 to 100 scale, 0 is no effect, 100 is complete control
Outline: (§2)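 Pot-grown plants (loam soil/sand blend), 2–10 cm tall at the one- to two-leaf stage, received postemergence sprays of formulated test chemical. After about 10 d in the greenhouse, injury was rated visually against untreated controls on a 0 (no effect) to 100 (complete control) scale.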

[9] = test system: galium (catchweed bedstraw, Galium aparine); assay: Test A greenhouse herbicide test, postemergence; details: for Plant response rating, Galium: 125 g ai/ha, 0 to 100 scale where 0 is no effect and 100 is complete control; for Galium plant response rating: 500 g ai/ha, 0 to 100 scale, 0 is no effect, 100 is complete control
Outline: as §2

[10] = Postemergence, 31 g ai/ha, 0 to 100 scale (0 no effect, 100 complete control)
[11] = Postemergence, 125 g ai/ha, scale 0 to 100, 0 is no effect, 100 is complete control
[12] = Postemergence, 250 g ai/ha, scale 0 to 100, 0 no effect, 100 complete control, 13 to 15 d
[13] = Preemergence, 31 g ai/ha, scale 0 to 100, 0 is no effect, 100 is complete control
[14] = Preemergence, 62 g ai/ha, scale 0 to 100, 0 is no effect, 100 is complete control
[15] = Preemergence, 125 g ai/ha, scale 0 to 100, 0 is no effect, 100 is complete control
[16] = Preemergence, 250 g ai/ha, scale 0 to 100 (0 no effect, 100 complete control)
[17] = postemergence, 62 g ai/ha, scale 0 to 100, 0 no effect, 100 complete control
[18] = Postemergence, 125 g ai/ha, 0 to 100 scale where 0 is no effect and 100 is complete control
[19] = Postemergence, 500 g ai/ha, 0 to 100 scale, 0 is no effect, 100 is complete control
[20] = Preemergence, 125 g ai/ha, 0 to 100 scale where 0 is no effect and 100 is complete control
[21] = Preemergence, 500 g ai/ha, 0 to 100 scale, 0 no effect, 100 complete control
[22] = Preemergence, 500 g ai/ha, 0 to 100 scale where 0 is no effect and 100 is complete control

Cc1ccc2ccccc2c1-c1c(O)c(C)nn(C)c1=O [Compound 59]
Barnyardgrass plant response rating [1, 10]: 20 | Plant response rating, Barnyardgrass [1, 11]: 55 | Plant response rating, Barnyardgrass [1, 12]: 70 | Plant response rating, Barnyardgrass [1, 13]: 30 | Plant response rating, Barnyardgrass [1, 14]: 70 | Plant response rating, Barnyardgrass [1, 15]: 90 | Barnyardgrass plant response rating [1, 16]: 95 | Barnyardgrass plant response rating [1, 17]: 30 | Plant response rating, Pigweed [2, 18]: 100 | Pigweed plant response rating [2, 19]: 100 | Pigweed plant response rating [2, 20]: 100 | Plant response rating, Pigweed [2, 21]: 100 | Plant response rating, Kochia (kochia (Kochia scoparia); [18]): 100 | Kochia plant response rating (kochia (Kochia scoparia); [19]): 100 | Kochia plant response rating (kochia (Kochia scoparia); [20]): 90 | Plant response rating, Kochia (kochia (Kochia scoparia); [21]): 90 | Plant response rating, Corn (corn (Zea mays)): 20 | Corn plant response rating (corn (Zea mays)): 60 | Plant response rating, Foxtail, Giant [3, 18]: 90 | Foxtail, Giant plant response rating [3, 19]: 100 | Foxtail, Giant plant response rating [3, 20]: 90 | Plant response rating, Foxtail, Giant [3, 21]: 100 | Plant response rating, Ragweed [4, 18]: 90 | Ragweed plant response rating [4, 19]: 100 | Ragweed plant response rating [4, 20]: 90 | Plant response rating, Ragweed [4, 21]: 100 | Plant response rating, Wheat [5]: 50 | Wheat plant response rating [5]: 100 | Plant response rating, Ryegrass, Italian [6, 18]: 100 | Ryegrass, Italian plant response rating [6, 19]: 100 | Ryegrass, Italian plant response rating [6, 20]: 90 | Plant response rating, Ryegrass, Italian [6, 21]: 100 | Plant response rating, Barnyardgrass [7, 18]: 80 | Barnyardgrass plant response rating [7, 19]: 90 | Barnyardgrass plant response rating [7, 20]: 80 | Plant response rating, Barnyardgrass [7, 21]: 100 | Plant response rating, Blackgrass [8]: 90 | Blackgrass plant response rating [8]: 100 | Plant response rating, Galium [9]: 100 | Galium plant response rating [9]: 100

CC(=O)Oc1c(C)nn(C)c(=O)c1-c1ccc(F)c2ccccc12 [Compound 90]
Barnyardgrass plant response rating [1, 10]: 30 | Plant response rating, Barnyardgrass [1, 11]: 50 | Plant response rating, Barnyardgrass [1, 12]: 70 | Plant response rating, Barnyardgrass [1, 13]: 35 | Plant response rating, Barnyardgrass [1, 14]: 65 | Plant response rating, Barnyardgrass [1, 15]: 75 | Barnyardgrass plant response rating [1, 16]: 95 | Barnyardgrass plant response rating [1, 17]: 35 | Plant response rating, Pigweed [2, 18]: 100 | Pigweed plant response rating [2, 19]: 100 | Pigweed plant response rating [2, 20]: 100 | Plant response rating, Pigweed [2, 22]: 100 | Plant response rating, Kochia (kochia (Kochia scoparia); [18]): 100 | Kochia plant response rating (kochia (Kochia scoparia); [19]): 100 | Kochia plant response rating (kochia (Kochia scoparia); [20]): 70 | Plant response rating, Kochia (kochia (Kochia scoparia); [22]): 100 | Plant response rating, Corn (corn (Zea mays)): 20 | Corn plant response rating (corn (Zea mays)): 30 | Plant response rating, Foxtail, Giant [3, 18]: 80 | Foxtail, Giant plant response rating [3, 19]: 100 | Foxtail, Giant plant response rating [3, 20]: 50 | Plant response rating, Foxtail, Giant [3, 22]: 100 | Plant response rating, Ragweed [4, 18]: 100 | Ragweed plant response rating [4, 19]: 100 | Ragweed plant response rating [4, 20]: 90 | Plant response rating, Ragweed [4, 22]: 100 | Plant response rating, Wheat [5]: 20 | Wheat plant response rating [5]: 30 | Plant response rating, Ryegrass, Italian [6, 18]: 100 | Ryegrass, Italian plant response rating [6, 19]: 100 | Ryegrass, Italian plant response rating [6, 20]: 100 | Plant response rating, Ryegrass, Italian [6, 22]: 100 | Plant response rating, Barnyardgrass [7, 18]: 80 | Barnyardgrass plant response rating [7, 19]: 100 | Barnyardgrass plant response rating [7, 20]: 60 | Plant response rating, Barnyardgrass [7, 22]: 100 | Plant response rating, Blackgrass [8]: 70 | Blackgrass plant response rating [8]: 90 | Plant response rating, Galium [9]: 100 | Galium plant response rating [9]: 100

Reference: US10597388B2, “Pyridazinone herbicides” (FMC CORPORATION, priority 2014, dated 2020)
